How the values were obtained:
Male ICR mice = test: Antagonism of test compounds against general anesthesia induced by general anesthetics (total anesthesia time, loss to recovery of righting reflex); format: in vivo
Protocol: The preparation method: A suitable amount of the compound to be tested was weighed, to which was added a suitable amount of medium and long chain fat emulsion injection with a pipette, and thus a 50 mmol/L solution of the test compound was prepared. After filtering with a 0.22 μm microporous membrane, the solution was immediately used.
Male ICR mice weighing 25 g±1 g were randomly divided into 8 groups, with 8 mice in each group. […] After maintaining the disappearance of the mouse righting reflex for 30 seconds, the solution of each test compound (50 mg/kg, using medium and long chain fat emulsion injection as solvent) or equal volume of medium and long chain fat emulsion injection was respectively injected, and the total anesthesia time of the mice was observed and recorded. Among them, the total anesthesia time refers to the time from the disappearance of the mouse righting reflex to the recovery of the mouse righting reflex.

male SD rats = test: Antagonism of compounds against general anesthesia maintained by continuous infusion of propofol (anesthesia recovery/awakening time); format: in vivo; details: for The average of awakening time: SD rats
Protocol: The preparation method was the same as that of Example 1.
24 male SD rats with a body weight range of 250-300 g were randomly divided into 4 groups, with 6 rats in each group. Continuous anesthesia induction was performed using propofol (22.11 mg/kg, 1.5×EDO, and then maintained at a rate of 1 mg/(kg min) for 30 min. After drug withdrawal, compound 85 at doses of 10 mg/kg, 20 mg/kg, and 50 mg/kg, as well as 50 mg/kg of the test compound solutions (using medium and long chain fat emulsion injection as solvent) or equal volume of medium and long chain fat emulsion injection was immediately injected, respectively, and the anesthesia recovery time of the […] after stopping the medication was observed and recorded. Among them, the anesthesia recovery time refers to the time from the cessation of propofol infusion to the recovery of the righting reflex in mice.

[1] = Propofol 22.11 mg/kg (1.5×ED50) i.v. tail vein induction, test compound 50 mg/kg in fat emulsion injected after 30 s loss of righting reflex
[2] = test drug 50 mg/kg after withdrawal of propofol infusion (1 mg/(kg min) for 30 min)
[3] = Etomidate 4.48 mg/kg (2×ED50) i.v. tail vein induction, test compound 50 mg/kg in fat emulsion injected after 30 s loss of righting reflex
[4] = Ketamine induction (dose not given), test compound 50 mg/kg in fat emulsion
[5] = Remimazolam 57.34 mg/kg (1.5×ED50) i.v. tail vein induction, test compound 50 mg/kg in fat emulsion injected after 30 s loss of righting reflex

Structure (SMILES)	The average of total anesthesia time (Male ICR mice; [1]) [min]	The average of awakening time (male SD rats; [2]) [min]	The average of total anesthesia time (Male ICR mice; [3]) [min]	The average of total anesthesia time (Male ICR mice; [5]) [min]	further results
CC12CCC(C(C(=O)O)C1=O)C2(C)C (stereo not drawn) [Compound 67]	2.14 ± 0.32	3.04 ± 0.18			
CSC1C(=O)C2(C)CCC1C2(C)C (stereo not drawn) [Compound 68]	4.05 ± 0.15		2.11 ± 0.54		
CC1(CBr)C2CCC1(CBr)C(=O)C2Br (stereo not drawn) [Compound 70]					The average of total anesthesia time (Male ICR mice; [4]): 3.49 ± 0.40 min
CC12CCC(CC1=O)C2(C)C (stereo not drawn) [Compound 85]	0.47 ± 0.21	0.36 ± 0.98	0.46 ± 0.25	0.45 ± 0.21	The average of total anesthesia time (Male ICR mice; [4]): 3.01 ± 0.45 min; Reversal of the anesthesia maintenance effect of continuous infusion of propofol (male SD rats; continuous propofol infusion, 10, 20, 50 mg/kg): could dose-dependently shorten the anesthesia recovery time of rats; The average of awakening time (male SD rats; test drug 10 mg/kg after withdrawal of propofol infusion (1 mg/(kg min) for 30 min)): 4.11 ± 1.22 min; The average of awakening time (male SD rats; test drug 20 mg/kg after withdrawal of propofol infusion (1 mg/(kg min) for 30 min)): 3.68 ± 1.12 min
CC12CCC(C(Br)C1=O)C2(C)C (stereo not drawn) [Compound 86]	1.56 ± 0.21			1.49 ± 0.62	
CC12CCC(C(I)C1=O)C2(C)C (stereo not drawn) [Compound 87]			1.56 ± 0.45	0.84 ± 0.78	
CC12CCC(C(=O)C1=O)C2(C)C (stereo not drawn) [Compound 104]					The average of total anesthesia time (Male ICR mice; [4]): 2.67 ± 0.30 min
CC1(Br)C(=O)C2(C)CCC1C2(C)C (stereo not drawn) [Compound 120]					The average of total anesthesia time (Male ICR mice; [4]): 3.72 ± 0.24 min
CC12CCC(CC1=O)C2(C)CBr (stereo not drawn) [Compound 130]	1.79 ± 0.09	3.41 ± 0.52			
CC12CCC(CC1=O)C2(C)CI (stereo not drawn) [Compound 135]			1.72 ± 0.50		
CC12CCC(CC1=O)C2(C)CC(=O)O (stereo not drawn) [Compound 139]			2.64 ± 0.89	1.29 ± 0.63	
CC12CCC(CC1=O)C2(C)CO (stereo not drawn) [Compound 140]	4.13 ± 0.20		2.05 ± 0.33	1.16 ± 0.92	
CC12CCC(CC1=O)C2(C)CBr (stereo not drawn) [Compound 150]	1.26 ± 0.17				
CC12CCC(CC1=O)C2(C)CO (stereo not drawn) [Compound 157]	2.52 ± 0.21		2.08 ± 0.32		
CCC1(C)C2CCC1(C)C(=O)C2 (stereo not drawn) [Compound 163]	1.51 ± 0.51	1.33 ± 0.79	2.17 ± 0.60	0.77 ± 0.02	
CC12CCC(C(Cl)C1=O)C2(C)C (stereo not drawn) [Compound 168]				0.86 ± 0.42	
CC1(C)[C@H]2CC[C@]1(C)C(=O)C2 [Compound 171]	0.42 ± 0.32	0.34 ± 0.89	1.97 ± 0.07	0.73 ± 0.57	The average of total anesthesia time (Male ICR mice; [4]): 3.64 ± 0.89 min
CC12CCC(CC1=O)C2(C)C(Cl)Br (stereo not drawn) [Compound 262]					The average of total anesthesia time (Male ICR mice; [4]): 3.92 ± 0.83 min
CC1(C)C2CCC1(CCl)C(=O)C2 (stereo not drawn) [Compound 269]	2.15 ± 0.98	3.29 ± 0.81		1.39 ± 0.45	

Structure (SMILES)	The average of total anesthesia time (Male ICR mice; [1]) [min]	The average of awakening time (male SD rats; [2]) [min]	The average of total anesthesia time (Male ICR mice; [3]) [min]	The average of total anesthesia time (Male ICR mice; [5]) [min]	further results
CC1(C)C2CCC1(CBr)C(=O)C2 (stereo not drawn) [Compound 270]	2.49 ± 0.15		2.50 ± 0.99	1.01 ± 0.05	
CC1(C)C2CCC1(CO)C(=O)C2 (stereo not drawn) [Compound 273]	1.43 ± 0.43				
CC12CCC(Br)(CC1=O)C2(C)C (stereo not drawn) [Compound 561]			2.03 ± 0.61		
CC12CCC(O)(CC1=O)C2(C)C (stereo not drawn) [Compound 563]	2.62 ± 0.18				
CC12CCC(F)(CC1=O)C2(C)C (stereo not drawn) [Compound 565]	2.40 ± 0.89	2.58 ± 0.56	0.87 ± 0.93		The average of total anesthesia time (Male ICR mice; [4]): 3.46 ± 0.15 min
CC12CCC(CC(=O)O)(CC1=O)C2(C)C (stereo not drawn) [Compound 572]				0.85 ± 0.37	
CC1C(=O)CC2(C(C)C)CC12 (stereo not drawn) [Compound 580]	3.12 ± 0.12	2.76 ± 0.20	1.36 ± 0.84	0.69 ± 0.25	
CC1C(=O)C2(C)CCC1(C)C2 (stereo not drawn) [Compound 581]	2.22 ± 0.27	4.66 ± 0.60	1.07 ± 0.32	1.32 ± 0.31	
CC1CCC(C(C)C)CC1=O (stereo not drawn) [Compound 582]	1.39 ± 0.08	0.96 ± 0.23	1.27 ± 0.83	1.49 ± 0.21	
CC12CC(Br)C(CC1=O)C2(C)C (stereo not drawn) [Compound 608]	4.08 ± 0.34				
CC12CC(Cl)C(CC1=O)C2(C)C (stereo not drawn) [Compound 610]		2.72 ± 0.36		1.32 ± 0.06	
CC12CC(O)C(CC1=O)C2(C)C (stereo not drawn) [Compound 616]	2.70 ± 0.63		1.15 ± 0.83	0.94 ± 0.30	
CC(=O)OC1CC2(C)C(=O)CC1C2(C)C (stereo not drawn) [Compound 626]			2.05 ± 0.54		
CC1(C)C2CC(=O)C1(C)C(Cl)C2 (stereo not drawn) [Compound 631]	3.30 ± 0.79	2.85 ± 0.58		0.70 ± 0.32	
CC1(C)C2CC(=O)C1(C)C(Br)C2 (stereo not drawn) [Compound 633]	2.04 ± 0.63	2.64 ± 0.19	0.96 ± 0.92		The average of total anesthesia time (Male ICR mice; [4]): 3.35 ± 0.90 min
CC1(C)C2CC(=O)C1(C)C(Cl)(Br)C2 (stereo not drawn) [Compound 643]		1.01 ± 0.29	2.80 ± 0.67		
CC1CC2CC(=O)C1(C)C2(C)C (stereo not drawn) [Compound 661]	2.89 ± 0.64	2.39 ± 0.75		0.55 ± 0.76	
[2H]C1C(=O)C2(C)CCC1C2(C)C (stereo not drawn) [Compound 664]					The average of total anesthesia time (Male ICR mice; [4]): 3.20 ± 0.77 min

Reference: patent US20240041795A1, “Cyclic Ketone Compounds and Applications Thereof” (priority 2021, published 2024)
